# Test results published in US8193235B2, “Compositions and methods for establishing and maintaining stem cells in an undifferentiated state” (University of Kansas, priority 2009, dated 2012).
# Legend:
# Assay type in all cases: cell-based, mouse
# PKCζkd cells = PKCζkd cells cultured on collagen IV without LIF
# From the text: ES Cell Differentiation on Collagen-IV and With Retinoic Acid. To differentiate ES cells in monolayer culture on collagen IV, around 3×10^4 cells per well were transferred to collagen IV-coated 6-well plates (BD Biosciences, Franklin Lakes, N.J.) cultured for 5 days in ES differentiation medium containing DMEM (Invitrogen), 15% FBS (selected for endothelial differentiation, Stem Cell Technologies, Vancouver, BC), sodium pyruvate and L-glutamine with or without LIF and Gö6983, and were recovered by cell dissociation buffer (BD Biosciences, Franklin Lakes, N.J.). For culturing multiple passages with Gö6983 on collagen-IV, the recovered cells were again plated at a density of ˜3×10^4 cells per well and cultured again for 5 days. […] For RA-induced differentiation on monolayer culture, ES cells were treated with all-trans-retinoic acid (Sigma, St. Louis, Mo.) in ethanol at a concentration of 1 μM with or without LIF and Gö6983 for 6 days followed by study of expression of pluripotency markers (by immunofluorescence or western blot or RT-PCR analysis).
# RNA Interference and Rescue of PKCζ Expression in RKCζkd Cells. Lentiviral vectors containing short hairpin RNAs (shRNAs) targeting mouse PKCζ mRNA were cloned in pLKO1 (Open Biosystems, Huntsville, Ala.). Lentiviral supernatants were produced in HEK-293T cells according to known methods (Dutta, et al. (2008) supra). […]
# 129/Sv blastocysts = assay: De novo derivation of new ES cells from blastocysts
# Description: De Novo Derivation of New ES Cells With Gö6983. Blastocysts from 6-week-old female 12952/SvPasCrl (129/Sv) strain mice (Charles River Laboratory, Wilmington, Mass.) were isolated at 3.5 day post-coitum. Isolated blasotocysts were plated on gelatin-coated plastic in medium containing Gö6983 and FBS and without LIF. To obtain ES cell colonies, blastocyst outgrowths were disaggregated with trypsin and replated on gelatin-coated wells with Gö6983 and FBS. ES cell colonies were expanded by replating with Gö6983 at clonal or higher density. For in vitro analysis, cells were differentiated following the same protocol described herein. After six passages with Gö6983-condition, chromosome numbers were checked by karyotyping, and injected in C57BL/6 blastocysts for chimera generation.
# NF-κB = assay: NF-κB5X-Luc reporter activation; settings: E14 cells
# Description: Analysis of NF-κB5X-Luc Reporter Activation. E14 ES or PKCζkd cells (2-4×10^4) were seeded on 24-well plates […]. Cells were transfected with 1 μg of plasmid ([…] NF-kB cis-Reporting System, Stratagene) in OPTI-MEM. Transfection mixture was removed after 5 hours with appropriate media. Luciferase activity was measured 24 hours post-transfection and expressed relative to total protein present in the whole cell lysate.
# [1] = test system: H3K27me3, EZH2, H3K9Me3, H3K4Me3 at gene loci; assay: Quantitative ChIP assay of chromatin marks
# Description: Quantitative ChIP Assay. Real-time PCR-based quantitative ChIP analysis was performed according to known methods (Dutta, et al. (2008) supra). Proliferating E14 cells (+LIF), ES cells differentiated on Collagen-IV with or without Gö6983 were either trypsinized or collected by using cell-dissociaton buffer and protein-DNA crosslinking was conducted by treating cells with formaldehyde at a final concentration of 1% for 10 minutes at room temperature with gentle agitation. Glycine (0.125 M) was added to quench the reaction. Antibodies against EZH2, SUZ12, H3K27Me3, H3K9Me3, and H3K4Me3 were used to immunoprecipitate protein-DNA crosslinked fragments. Immunoprecipitated DNA was analyzed by real-time PCR (ABI 7500, Applied Biosystem, Foster City, Calif.). Samples from three or more immunoprecipitates were analyzed using a standard curve from sonicated total chromatin (input) samples.
smiles,measurement,setting,value
"COc1ccc2c(c1)c(C1=C(c3c[nH]c4ccccc34)C(=O)NC1=O)cn2CCCN(C)C [Gö6983, 3-[1-[3-(dimethylamino)propyl]5-methoxy-1H-indol-3-yl]-4-(1H-indol-3-yl)-1H-pyrrole-2,5-dione]",expression of pluripotency markers in PKCζkd cells on collagen IV,PKCζkd cells; FIG. 2C,maintained the expression of pluripotency markers
same,differentiation of PKCζkd cells on collagen IV,PKCζkd cells; without LIF,inhibited differentiation of PKCζkd cells
same,propagation of Gö6983-derived ES cell lines at clonal density,129/Sv blastocysts; cultured with Gö6983,successfully propagated in an undifferentiated state
same,multilineage differentiation potential of established ES cell lines,"129/Sv blastocysts; embryoid bodies, differentiated on collagen IV",readily formed embryoid bodies and expressed lineage specific markers
same,derivation of ES cell colonies from blastocyst outgrowths,"129/Sv blastocysts; serum and Gö6983, without LIF and feeder cells, gelatin-coated plates",multiple ES cell colonies were obtained from 10 blastocysts
same,NFκ5x-Luc reporter gene activation,NF-κB,strongly inhibited
same,H3K4 methylation (H3K4Me3) at Oct4 and Nanog loci,[1],high levels of H3K4 methylation
same,H3K9 methylation at the Oct4 and Nanog loci,[1],inhibited H3K9 methylation
same,H3K27me3 and EZH2 chromatin occupancy at developmental regulator genes,[1]; mESCs,maintained high levels of H3K27me3 and chromatin occupancy
